1 substance from patent US6762178B2, “Acetylenic aryl sulfonamide and phosphinic acid amide hydroxamic acid TACE inhibitors” (Wyeth Holdings Corporation, priority 1999, dated 2004) can be followed below.

The IC50 is the concentration at which inhibition is half-maximal. A lower IC50 goes with higher potency.

Experiment [1] deals with T1, MMP-1 (Homo sapiens, UniProt P03956).
T1 sequence (P03956 100-469): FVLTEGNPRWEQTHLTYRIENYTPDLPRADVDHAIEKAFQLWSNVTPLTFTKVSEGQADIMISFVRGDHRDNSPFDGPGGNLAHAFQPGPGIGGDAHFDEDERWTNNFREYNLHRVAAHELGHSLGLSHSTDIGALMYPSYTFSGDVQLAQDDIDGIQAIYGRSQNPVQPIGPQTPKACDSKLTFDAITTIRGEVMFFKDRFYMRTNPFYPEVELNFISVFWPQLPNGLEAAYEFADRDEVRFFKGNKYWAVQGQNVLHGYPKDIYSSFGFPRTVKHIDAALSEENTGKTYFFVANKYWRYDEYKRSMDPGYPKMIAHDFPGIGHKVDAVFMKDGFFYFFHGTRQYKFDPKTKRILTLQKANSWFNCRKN
Description: MMP-1 inhibition (thiopeptide or fluorescent peptide substrate). The experiment is classed as biochemical. The procedure: (§1) The enzyme activity is measured by the rate of the color increase. The thiopeptide substrate is made up fresh as a 20 mM stock in 100% DMSO and the DTNB is dissolved in 100% DMSO as a 100 mM stock and stored in the dark at room temperature. Both the substrate and DTNB are diluted together to 1 mM with substrate buffer (50 mM HEPES pH 7.5, 5 mM CaCl2) before use. The stock of enzyme is diluted with buffer (50 mM HEPES, pH 7.5, 5 mM CaCl2, 0.02% Brij) to the desired final concentration.
(§2) Alternatively, a fluorescent peptide substrate is used. In this test procedure, the peptide substrate contains a fluorescent group and a quenching group. Upon cleavage of the substrate by an MMP, the fluorescence that is generated is quantitated on the fluorescence plate reader. The assay is run in HCBC assay buffer (50 mM HEPES, pH 7.0, 5 mM Ca^+2, 0.02% Brij, 0.5% Cysteine), with human recombinant MMP-1, MMP-9, or MMP-13. The substrate is dissolved in methanol and stored frozen in 1 mM aliquots. For the assay, substrate and enzymes are diluted in HCBC buffer to the desired concentrations. […]
(§3) For either the thiopeptide or fluorescent peptide test procedures, the slope of the line is calculated and represents the reaction rate. […] The mean (x±sem) of the control rate is calculated and compared for statistical significance (p<0.05) with drug-treated rates using Dunnett's multiple comparison test.

The target of experiment [2] is MMP-9 (Homo sapiens, UniProt P14780). Description: MMP-9 inhibition (thiopeptide or fluorescent peptide substrate). In kind it is biochemical. The method, then:
as §1, §2, §3

In experiment [3] the target is TNF-α converting enzyme (TACE) (Homo sapiens, UniProt P78536). The experiment is described as follows: TACE inhibition (fluorescent peptidyl substrate). In kind it is biochemical. The procedure:
Using 96-well black microtiter plates, each well receives a solution composed of 10 μL TACE (final concentration 1 μg/mL), 70 μL Tris buffer, pH 7.4 containing 10% glycerol (final concentration 10 mM), and 10 μL of test compound solution in DMSO (final concentration 1 μM, DMSO concentration <1%) and incubated for 10 minutes at room temperature. The reaction is initiated by addition of a fluorescent peptidyl substrate (final concentration 100 μM) to each well and then shaking on a shaker for 5 sec.
The reaction is read (excitation 340 nm, emission 420 nm) for 10 min. and the increase in fluorescence over time is plotted as a linear line. The slope of the line is calculated and represents the reaction rate.
The mean (x±sem) of the control rate is calculated and compared for statistical significance (p<0.05) with drug-treated rates using Dunnett's multiple comparison test.

For experiment [4], the system named is THP-1 cells. The experiment is described as follows: THP-1 soluble protein assay. The experiment is classed as cell-based, human. The conditions noted are these: LPS-stimulated THP-1 cells. The source says: In addition, non-stimulated THP-1 cells shed both the p75/80 and the p55/60 receptors over time. The release of membrane bound TNF-α and possibly TNF-R p75/80 and TNF-R p55/60, but not IL-8, is mediated by an enzyme called TNF-a converting enzyme or TACE.
THP-1 cells (from ATCC) are a human monocytic cell line which were obtained from the peripheral blood of a person with acute monocytic leukemia. They can be grown in culture and differentiated into macrophage like cells by stimulation with mitogens.
Each vial of cells are cultured for about two weeks prior to being used for an assay and then are used for only 4 to 6 weeks to screen compounds.
Cell exposure to DMSO was limited to 0.1% final concentration. […] Compounds can be evaluated for their effect on basal (non-stimulated) shedding of the receptors by replacing the LPS with […] of THP-1 media. Plates are placed into an incubator set at 5% CO2 and at 37° C. […]
In addition, at the 24 hours timepoint, and the cells for each treatment group are collected by resuspension in 500 μl/well of THP-1 media and transferred into a FACS tube. […] The samples are run on a Becton Dickinson FaxCaliber FLOW cytometry machine and the amount of dye taken up by each cell is measured in the high red wavelength (FL3). […] The percent of live cells is calculated by the number of cells not stained with PI, divided by the total number of cells in the sample. […]

For experiment [5], the target named is MMP-13 (Homo sapiens, UniProt P45452). The experiment is described as follows: MMP-13 inhibition (thiopeptide or fluorescent peptide substrate). In kind it is biochemical. The procedure:
as §1, §2, §3

MMP-9, sequence (P14780 94-707): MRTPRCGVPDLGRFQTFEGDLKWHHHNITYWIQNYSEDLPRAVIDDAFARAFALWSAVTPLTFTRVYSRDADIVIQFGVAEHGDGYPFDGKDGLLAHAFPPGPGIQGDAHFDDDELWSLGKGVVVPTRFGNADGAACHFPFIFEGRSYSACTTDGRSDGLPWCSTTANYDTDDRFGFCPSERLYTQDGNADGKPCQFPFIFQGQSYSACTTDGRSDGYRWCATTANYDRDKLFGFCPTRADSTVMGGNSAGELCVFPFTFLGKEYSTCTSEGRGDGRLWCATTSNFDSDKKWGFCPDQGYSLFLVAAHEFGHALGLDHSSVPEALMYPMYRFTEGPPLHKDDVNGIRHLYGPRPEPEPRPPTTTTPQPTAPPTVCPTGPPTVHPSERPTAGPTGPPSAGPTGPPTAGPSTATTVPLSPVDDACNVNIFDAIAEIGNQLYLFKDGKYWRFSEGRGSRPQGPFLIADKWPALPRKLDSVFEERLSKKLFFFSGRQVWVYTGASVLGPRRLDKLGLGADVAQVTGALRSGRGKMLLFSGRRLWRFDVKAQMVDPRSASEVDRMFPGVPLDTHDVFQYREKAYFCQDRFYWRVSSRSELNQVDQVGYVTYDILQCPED
TNF-α converting enzyme (TACE), sequence (P78536 215-824, species assumed): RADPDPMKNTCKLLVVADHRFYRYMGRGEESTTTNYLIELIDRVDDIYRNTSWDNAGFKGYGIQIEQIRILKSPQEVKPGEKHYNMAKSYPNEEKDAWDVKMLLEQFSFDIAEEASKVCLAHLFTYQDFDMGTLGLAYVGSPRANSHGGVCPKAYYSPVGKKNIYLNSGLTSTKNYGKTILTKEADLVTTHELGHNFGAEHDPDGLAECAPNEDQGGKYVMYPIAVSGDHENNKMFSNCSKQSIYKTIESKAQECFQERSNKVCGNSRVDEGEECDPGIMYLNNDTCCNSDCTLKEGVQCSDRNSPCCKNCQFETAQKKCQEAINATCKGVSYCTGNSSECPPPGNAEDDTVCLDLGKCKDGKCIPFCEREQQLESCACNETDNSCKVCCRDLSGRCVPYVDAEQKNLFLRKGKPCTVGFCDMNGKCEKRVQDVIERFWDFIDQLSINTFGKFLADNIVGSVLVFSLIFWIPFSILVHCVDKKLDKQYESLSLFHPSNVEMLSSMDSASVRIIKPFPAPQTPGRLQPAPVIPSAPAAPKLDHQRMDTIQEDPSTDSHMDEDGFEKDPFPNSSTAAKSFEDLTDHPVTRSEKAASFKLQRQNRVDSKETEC

“5-Bromo-2-[(4-butoxy-benzenesulfonyl)-methyl-amino]-N-hydroxy-3-methyl-benzamide [Example 39]”: the IC50 worked out at 2490 nM in experiment [1], 21 nM in experiment [2], 67 nM in experiment [3] and 68 nM in experiment [5]. Also, in experiment [4], the “THP % Inhib. @ 3 μM” value is on record as 0%.
